Assay results taken from patent US4849409A, “Diels-alder adduct from streptazoline and naphthoquinones and its oxidation products, which have cytotoxic and antimicrobial activity and which act against protozoa” (Hoechst Aktiengesellschaft, priority 1986, dated 1989).
In brackets after ≈: the same amount, converted by molar mass. Where two headings read alike, the source gives them in different places.

Legend:
L1210 leukemia cells = assay: cells; type: cell-based, mouse; conditions: for IC50: Mus musculus
Experimental: The cytotoxic action of the compounds can be established in various test systems such as, for example, in the soft agar colony test on mouse leukemia cells in vitro.
Formation of colonies of L1210 leukemia cells in soft agar:
In this test, substances having cytostatic activity bring about a reduction in the observed number of colonies compared with an untreated control. The details of the test procedure are as follows:
500 L1210 leukemia cells per plate are incubated with various concentrations of the compound of the formula II, obtained as in Example 3, as test substance at 37° C. for 1 hour. The cells are then washed twice with McCoy 5A medium and finally, after addition of 0.3% agar, poured into Petri dishes. Controls are incubated merely with fresh medium. In addition, in place of the incubation for 1 hour, various concentrations of the test substance are admixed to the upper agar layer, in order thus to acheive continuous exposure of the cells throughout the incubation time. After the agar has solidified, the plates are incubated in an incubator at 37° C. for 7 days (5% CO2, 95% relative humidity). The number of resultant colonies with a diameter >60μ is then counted. The results are expressed as the quotient of the number of colonies on treated agar plates and the number of colonies on the untreated control. The IC50 was obtained, as a measure of the activity of the test substance, from the dose-effect curve thus obtained. The comparison substance used in this test is the cytostatic adriamycin.

leukemia cells = conditions: cited from earlier work
[1] = in words; cited from earlier work
[2] = L1210, 168 h, continuous exposure, substance in upper agar layer, 7 days at 37° C., read-out: Stem cell assay cont. IC50
[3] = L1210, incubation for 1 hour at 37° C., then washed, 7 days in agar, read-out: Stem cell assay 1 h IC50

SMILES | cytotoxicity (assessment) (L1210 leukemia cells) | IC50 (L1210 leukemia cells; [2]) [µg/mL] | IC50 (L1210 leukemia cells; [3]) [µg/mL] | cytotoxic action (leukemia cells) | antibiotic action [1]
CC1C2=C(C(=O)c3c(O)ccc(O)c3C2=O)[C@@H]2CCN3C(=O)O[C@@H]4[C@@H](O)C1=C2[C@@H]43 (stereo partly shown) [Test substance] | cytotoxicity comparable to that of adriamycin | 0.04 (≈ 0.101 µM) | 0.26 (≈ 0.658 µM) |  | 
CC=C1C2=CCCN3C(=O)OC(C1O)C23 (stereo not shown) [Streptazoline] | no cytotoxicity worthy of note | 10 (≈ 48.3 µM) | 10 (≈ 48.3 µM) | no cytotoxic action | only a very weak antibiotic
COc1cccc2c1C(=O)c1c(O)c3c(c(O)c1C2=O)C[C@@](O)(C(=O)CO)C[C@@H]3O[C@H]1C[C@H](N)[C@H](O)[C@H](C)O1 [Adriamycin] |  | 0.02 (≈ 0.0368 µM) | 0.04 (≈ 0.0736 µM) |  | 
